From patent publication US11944623B2, “Modulators of Kv3 channels to treat pain” (Autifony Therapeutics Limited, priority 2015, dated 2024)

Molecular target: T1, hKv3.4 channels (Homo sapiens, UniProt Q03721)
T1 construct: expressed in transfected cells; host or cells: Xenopus laevis oocytes, microinjected in vitro transcribed mRNA
T1 sequence (Q03721 1-635): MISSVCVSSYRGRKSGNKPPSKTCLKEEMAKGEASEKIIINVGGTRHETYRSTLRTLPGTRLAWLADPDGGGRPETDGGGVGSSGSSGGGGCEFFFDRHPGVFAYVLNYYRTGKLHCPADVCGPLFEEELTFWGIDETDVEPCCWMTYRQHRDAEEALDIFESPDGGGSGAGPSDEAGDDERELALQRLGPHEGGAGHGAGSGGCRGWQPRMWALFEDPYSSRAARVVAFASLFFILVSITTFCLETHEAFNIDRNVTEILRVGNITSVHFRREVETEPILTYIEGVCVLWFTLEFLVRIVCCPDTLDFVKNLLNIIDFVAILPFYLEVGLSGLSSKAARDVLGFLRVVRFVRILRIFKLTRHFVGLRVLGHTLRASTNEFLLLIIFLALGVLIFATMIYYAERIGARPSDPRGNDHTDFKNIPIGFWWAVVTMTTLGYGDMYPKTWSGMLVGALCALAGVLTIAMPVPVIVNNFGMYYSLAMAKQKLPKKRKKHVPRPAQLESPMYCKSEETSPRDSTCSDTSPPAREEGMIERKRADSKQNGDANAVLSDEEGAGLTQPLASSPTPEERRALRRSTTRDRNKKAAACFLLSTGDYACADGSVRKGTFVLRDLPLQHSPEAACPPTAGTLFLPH
Experiment: Kv3.4 Assay 3 (two-electrode voltage clamp, Xenopus oocytes)
Assay type: cell-based
Set-up: dose or concentration left out as unconfirmed
Experimental: hKv3.4 channels were heterologously expressed in Xenopus ooctyes following microinjection of in vitro transcribed mRNA (mMessage mMachine kit, Ambion, Austin, TX). Whole-oocyte currents were recorded 1-4 day post-microinjection at room temperature (21-23° C.) under two-electrode voltage-clamp conditions (OC-725C, Warner, Hamden, CT). ND-96 and ND-96 plus the test compound were delivered using a gravity-driven perfusion system. Whole-oocyte currents mediated by hKv3.4 channels were elicited by 400 ms depolarizing steps from −40 to 60 mV in 10 mV increments from a holding potential of −100 mV under in the absence and then presence of test compound. Voltage-conductance curves were constructed from the peak currents evoked at each voltage step, and the data were fitted to a Boltzmann equation. Data acquisition, leak subtraction and initial analyses were performed using pClamp 9.2/10.3 (Molecular Devices, Sunnyvale, CA). Macroscopic currents were low-pass filtered at 0.5-1 kHz and digitized at 1-2 kHz. Leak and capacitive currents were subtracted on line using a p/4 subtraction strategy. Xenopus laevis frogs were handled according IACUC approved protocols and regulations.

Cc1ccc(Oc2ncc(N3C(=O)NC(C)(C)C3=O)cn2)c2c1OCC21CC1 [Compound 1, 5,5-dimethyl-3-[2-(7-methylspiro[2H-benzofuran-3,1′-cyclopropane]-4-yl)oxypyrimidin-5-yl]imidazolidine-2,4-dione]
effect on Kv3.4 mediated channel currents: No significant effect
shift of the voltage-conductance curve for hK3.4: did not significantly shift
